Results on 27 compounds are retold here after ChEMBL document CHEMBL1157539, “Thousands of chemical starting points for antimalarial lead identification” (Nature, 2010).

Where a name gives a salt, the structure may show the parent alone.

One experiment concerns Plasmodium falciparum. Briefly: GSK_TCMDC: Inhibition of Plasmodium falciparum 3D7 in whole erythrocytes, using parasite LDH activity as an index of growth. In kind it is functional, organism-based.
Settings: not given
In turn, `CN(Cc1cnc2nc(N)nc(N)c2n1)c1ccc(C(=O)N[C@@H](CCC(=O)O)C(=O)O)cc1` [METHOTREXATE] displayed an XC50 of 178 nM.
`COc1ccc(C[C@H](N)C(=O)N[C@H]2[C@@H](O)[C@H](n3cnc4c(N(C)C)ncnc43)O[C@@H]2CO)cc1` [PUROMYCIN] showed an XC50 of 174 nM.
With `CCc1nc(N)nc(N)c1-c1ccc(Cl)cc1` [PYRIMETHAMINE], the XC50 is 31.8 nM.
On the same count and under the same terms, for `C=C[C@H]1CN2CC[C@H]1C[C@H]2[C@H](O)c1ccnc2ccc(OC)cc12` [QUININE HYDROCHLORIDE] the value was 95.2 nM.

The experiment is the same for the next values; noted with them: Plasmodium falciparum, 3D7.
With `CCS(=O)(=O)Nc1ccc2c(c1)/C(=C(/Nc1ccc(CN3CCCCC3)cc1)c1ccccc1)C(=O)N2` [HESPERADIN], the XC50 is 56.5 nM.
Same read-out and setting: for `COc1c(O)cc2oc(-c3ccc(O)cc3)cc(=O)c2c1O` [HISPIDULIN] the value was 771 nM.
For the compound `CCN(CCO)CCCC(C)Nc1ccnc2cc(Cl)ccc12` (stereo not given) [HYDROXYCHLOROQUINE SULFATE], the XC50 came out at 762 nM.
With `O=C(Nc1cc(C(F)(F)F)cc(C(F)(F)F)c1)c1cc(Cl)ccc1O` [IMD-0354], the XC50 was determined as 1310 nM.
On the same count and under the same terms, for `O=C(Nc1cccc(C2=NCCN2)c1)Nc1cccc(C2=NCCN2)c1` [IMIDOCARB] the value was 419 nM; for `c1ccc([C@H]2CN3CCSC3=N2)cc1` [LEVAMISOLE], 622 nM; for `CN(Cc1cnc2nc(N)nc(N)c2n1)c1ccc(C(=O)N[C@@H](CCC(=O)O)C(=O)O)cc1` [METHOTREXATE], 100 nM.
Still for that read-out and setting: for `Cc1nc(N)nc(N)c1-c1ccc(Cl)c(Cl)c1` [METOPRINE] the value was 79.6 nM; for `CC(C)=CCc1c(-c2ccc(O)cc2O)oc2c3c(cc(O)c2c1=O)OC(C)(C)C=C3` [MORUSIN], 977 nM; for `CCCCCCCC/C=C\CCCCCCCC(=O)NCc1ccc(O)c(OC)c1` [OLVANIL], 402 nM.
In turn, `Cc1nc2ccc3ccc(CNc4ccc5c(c4)CN([C@@H](CCC(=O)O)C(=O)O)C5=O)cc3c2c(=O)[nH]1` [OSI-7904] returned an XC50 of 164 nM.
Turning to `CCCCc1ccc2[nH]c(NC(=O)OC)nc2c1` [PARBENDAZOLE], the XC50 worked out at 683 nM.
In turn, `CCN(CC)CCOc1ccc(Nc2ncc3cc(-c4c(Cl)cccc4Cl)c(=O)n(C)c3n2)cc1` [PD-0166285] registered an XC50 of 1180 nM.
Same read-out and setting: in the case of `N=C(N)c1ccc(OCCCCCOc2ccc(C(=N)N)cc2)cc1` [PENTAMIDINE HYDROCHLORIDE] it was 140 nM.
The same measure, in the same setting: in the case of `Cc1[nH]c(/C=C2\C(=O)Nc3ccc(S(=O)(=O)Cc4c(Cl)cccc4Cl)cc32)c(C)c1C(=O)N1CCC[C@@H]1CN1CCCC1` [PHA-665752] it was 720 nM; in that of `COc1ccc(OC)c(Cc2cnc3nc(N)nc(N)c3c2C)c1` [PIRITREXIM], 10.2 nM; in that of `COc1cc2c(cc1O)[C@@H]1[C@H](O)[C@@H](O)C=C3CCN(C2)[C@H]31` [PSEUDOLYCORINE], 991 nM.
`CCc1nc(N)nc(N)c1-c1ccc(Cl)cc1` [PYRIMETHAMINE] returned an XC50 of 59.5 nM.
Take `C=C[C@H]1CN2CC[C@H]1C[C@@H]2[C@@H](O)c1ccnc2ccc(OC)cc12` [QUINIDINE]: the XC50 was determined as 118 nM.
Regarding `C=C[C@H]1CN2CC[C@H]1C[C@H]2[C@H](O)c1ccnc2ccc(OC)cc12` [QUININE HYDROCHLORIDE], the XC50 came to 145 nM.
Same read-out and setting: for `c1ccc(-c2cccc(-c3ccccn3)n2)nc1` [TERPYRIDINE] the value was 901 nM.
Same read-out and setting: for `c1ccc(CC2=NCCN2)cc1` [TOLAZOLINE HYDROCHLORIDE] the value was 188 nM; for `CN1CCC(COC(=O)C(O)(c2ccccc2)c2ccccc2)C1` (stereo not given) [TRICLAZATE], 997 nM.
Compound `COc1cc(Cc2cnc(N)nc2N)cc(OC)c1OC` [TRIMETHOPRIM] registered an XC50 of 755 nM.
On the same count and under the same terms, in the case of `O=C1c2ccccc2-n2c1nc1ccccc1c2=O` [TRYPTANTHRIN] it was 856 nM; in that of `FC(F)c1nc2ccccc2n1-c1nc(N2CCOCC2)nc(N2CCOCC2)n1` [ZSTK-474], 761 nM.
